In US20250154686A1, “COMPOUND LIBRARY” (CHUGAI SEIYAKU KABUSHIKI KAISHA, priority 2021, published 2025):

Target: T1, Bcl-2 protein (Recombinant Human Bcl-2 Protein) (Homo sapiens, UniProt P10415)
T1 construct: purchased Novus Biologicals NBP2-34889
Test: AS-MS evaluation of binding of the Example 4 mixture library (1200 compounds/well) to Bcl-2, ASMS ratio (%)
Details: mixture library, value belongs to the MS peak assigned to the compound; for ASMS ratio (%) n = 1: replicate n = 1; for ASMS ratio (%) n = 2: replicate n = 2
Experimental: DMSO solutions (prepared into approximately 0.58 mM based on calculation from the average molecular weight of each mixture) of 12 types of mixtures that could each contain 100 compounds, i.e., mixAI-B4J-01, mixAI-B1M-01, mixAI-B1K-01, mixAI-BIO-01, mixAI-B1A-01, mixAI-B3A-01, mixAI-B21-01, mixAI-B2L-01, mixAI-B2N-01, mixAI-B2A-01, mixAI-B2Q-01, and mixAI-B2R-01, shown in Table AI-03-B4J-01, Table AI-03-B1M-01, Table AI-03-B1K-01, Table AI-03-B10-01, Table AI-03-B1A-01, Table AI-03-B3A-01, Table AI-03-B21-01, Table AI-03-B2L-01, Table AI-03-B2N-01, Table AI-03-B2A-01, Table AI-03-B2Q-01, and Table AI-03-B2R-01 described in Example 4, were respectively dispensed to a total of 12 wells of MICROPLATE, 96-well, PP, V-BOTTOM (Greiner Bio-One International GmbH, 651201). 70 nL each from the 12 wells was collected into any one well using LABCYTE ECHO® 555 acoustic dispensing system (Beckman Coulter, Inc.) to prepare a sample solution in a mixed state of 1200 compounds (the presence of 1152 compounds was already identified when the mixtures were prepared in Example 4). Further, Bcl-2 protein (Novus Biologicals, NBP2-34889, Recombinant Human Bcl-2 Protein, Lot E60145051) (19.2 μL) prepared at 20.9 μM in advance using a Tris-HCl buffer (25 mM Tris-HCl, pH 7.4, 150 mM NaCl, 0.025% Tween-20, and 1 mM DTT) was added to the well containing the dispensed 1200 compounds (the presence of 1152 compounds was already identified when the mixtures were prepared in Example 4) (final compound concentration: 20 nM, final Bcl-2 concentration: 20 μM), and the plate was incubated at 23° C. for 1 hour in the dark. Subsequently, 200 μL of an assay buffer (25 mM Tris-HCl, pH 7.4, 150 mM NaCl, 0.025% Tween-20, and 1 mM DTT) was centrifuged three times at 2000×G at 4° C. for 2 minutes using 96-well MacroSpin column, P-2 Material (Harvard Bioscience, Inc., 74-5655) that had been allowed to swell to condition the 96-well MacroSpin column. Subsequently, 20 μL of the sample thus incubated was added to the 96-well MacroSpin column, P-2 Material after the completion of conditioning, and SEC treatment was performed by centrifugation at 2000×G for 2 minutes. 32 μL of a 1:1 mixed solution of acetonitrile and methanol (LC/MS grade, FUJIFILM Wako Pure Chemical Corp.) was added to a flow-through liquid from SEC, and the mixture was centrifuged at 1800×G at 4° C. for 5 minutes. The supernatant was used as analysis sample ASMS (A). By a similar operation, a sample prepared at 1200 compounds/well and supplemented with only a Tris-HCl buffer containing no Bcl-2 protein was incubated under the same conditions as above, and the same organic solvent as above was added thereto without 96-well MacroSpin column treatment. A supernatant obtained by a centrifugation operation was used as STD (B). Next, by a similar operation, a sample prepared at 1200 compounds/well and supplemented with only a Tris-HCl buffer containing no Bcl-2 protein was incubated under the same conditions as above and treated with 96-well MacroSpin column in the same manner as above, and the same organic solvent as above was added thereto. A supernatant obtained by a centrifugation operation was used as BK (C). These samples were measured by reverse-phase LC/MS.
Then, the samples A, B and C were analyzed for the 1200 compounds using TraceFinder 5.1 (Thermo Fisher Scientific Inc.) and CHANCE Software (in-house), and an ASMS ratio (%) was calculated according to the following expression.
Although m/z of the MS peaks was confirmed down to four decimal places, 0 at the decimal level may be omitted in the description in Table AJ-01. For example, “587.0000” is also referred to as “587”, “587.1000” is also referred to as “587.1”, “587.1200” is also referred to as “587.12”, and “587.1230” is also referred to as “587.123”.

T1 sequence (P10415 whole entry): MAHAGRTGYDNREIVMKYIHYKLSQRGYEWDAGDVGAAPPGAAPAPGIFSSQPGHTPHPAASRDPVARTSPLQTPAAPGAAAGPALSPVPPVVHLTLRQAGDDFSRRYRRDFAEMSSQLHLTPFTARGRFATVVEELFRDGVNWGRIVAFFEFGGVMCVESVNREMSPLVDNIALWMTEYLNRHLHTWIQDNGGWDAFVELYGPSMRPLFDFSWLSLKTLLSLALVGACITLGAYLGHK

Row | ASMS ratio (%) n = 1 | ASMS ratio (%) n = 2 | SMILES
1 | −0.3% | 0.2% | CCOc1cccc(-c2ccccc2CN2CCN(c3ccc(C(=O)NS(C)(=O)=O)cc3)CC2)c1 [Compound B2I045-01, 4-[4-[[2-(3-Ethoxyphenyl)phenyl]methyl]piperazin-1-yl]-N-methylsulfonylbenzamide]
2 | −0.6% | 1.5% | CCOc1cncc(-c2ccccc2CN2CCN(c3ccc(C(=O)NS(C)(=O)=O)cc3)CC2)c1 [Compound B2I046-01, 4-[4-[[2-(5-Ethoxypyridin-3-yl)phenyl]methyl]piperazin-1-yl]-N-methylsulfonylbenzamide]
3 | 0.8% | 1.4% | CCOc1cccc(-c2ccc(CN3CCN(c4ccc(C(=O)NS(C)(=O)=O)cc4)CC3)cc2C)c1 [Compound B2I047-01, 4-[4-[[4-(3-Ethoxyphenyl)-3-methylphenyl]methyl]piperazin-1-yl]-N-methylsulfonylbenzamide]
4 | 0.0% | 0.0% | CCOc1cncc(-c2ccc(CN3CCN(c4ccc(C(=O)NS(C)(=O)=O)cc4)CC3)cc2C)c1 [Compound B2I048-01, 4-[4-[[4-(5-Ethoxypyridin-3-yl)-3-methylphenyl]methyl]piperazin-1-yl]-N-methylsulfonylbenzamide]
5 | 0.0% | 0.0% | CCOc1cccc(-c2ccc(CN3CCN(c4ccc(C(=O)NS(C)(=O)=O)cc4)CC3)c(CC)c2)c1 [Compound B2I049-01, 4-[4-[[4-(3-Ethoxyphenyl)-2-ethylphenyl]methyl]piperazin-1-yl]-N-methylsulfonylbenzamide]
6 | 0.0% | 0.0% | CCOc1cccc(-c2ccc(CN3CCN(c4ccc(C(=O)NS(C)(=O)=O)cc4)CC3)cc2F)c1 [Compound B2I051-01, 4-[4-[[4-(3-Ethoxyphenyl)-3-fluorophenyl]methyl]piperazin-1-yl]-N-methylsulfonylbenzamide]
7 | 0.0% | 0.0% | CCOc1cncc(-c2ccc(CN3CCN(c4ccc(C(=O)NS(C)(=O)=O)cc4)CC3)cc2F)c1 [Compound B2I052-01, 4-[4-[[4-(5-Ethoxypyridin-3-yl)-3-fluorophenyl]methyl]piperazin-1-yl]-N-methylsulfonylbenzamide]
8 | 0.0% | 0.0% | CCOc1cccc(-c2ccc(CN3CCN(c4ccc(C(=O)NS(C)(=O)=O)cc4)CC3)c(OC)c2)c1 [Compound B2I053-01, 4-[4-[[4-(3-Ethoxyphenyl)-2-methoxyphenyl]methyl]piperazin-1-yl]-N-methylsulfonylbenzamide]
9 | 0.0% | 0.0% | CCOc1cccc(-c2cc(CN3CCN(c4ccc(C(=O)NS(C)(=O)=O)cc4)CC3)cc(OCC)c2)c1 [Compound B2I055-01, 4-[4-[[3-Ethoxy-5-(3-ethoxyphenyl)phenyl]methyl]piperazin-1-yl]-N-methylsulfonylbenzamide]
10 | 0.0% | 0.0% | CCOc1cccc(-c2cc(CN3CCN(c4ccc(C(=O)NS(C)(=O)=O)cc4)CC3)cc(OC(C)C)c2)c1 [Compound B2I057-01, 4-[4-[[3-(3-Ethoxyphenyl)-5-propan-2-yloxyphenyl]methyl]piperazin-1-yl]-N-methylsulfonylbenzamide]

The remaining lines, values behind:

Row | SMILES | ASMS ratio (%) n = 1 | ASMS ratio (%) n = 2
11 | CCOc1cccc(C#Cc2cc(C(=O)N3CCN(c4ccc(C(=O)NS(C)(=O)=O)cc4)CC3)cc(C(F)(F)F)c2)c1 [Compound B2I041-01, 4-[4-[3-[2-(3-Ethoxyphenyl)ethynyl]-5-(trifluoromethyl)benzoyl]piperazin-1-yl]-N-methylsulfonylbenzamide] | 0.0% | 0.0%
12 | CCOc1cncc(C#Cc2cc(C(=O)N3CCN(c4ccc(C(=O)NS(C)(=O)=O)cc4)CC3)cc(C(F)(F)F)c2)c1 [Compound B2I042-01, 4-[4-[3-[2-(5-Ethoxypyridin-3-yl)ethynyl]-5-(trifluoromethyl)benzoyl]piperazin-1-yl]-N-methylsulfonylbenzamide] | 0.0% | 0.0%
13 | CCOc1cccc(-c2cnn(-c3cc(C(=O)N4CCN(c5ccc(C(=O)NS(C)(=O)=O)cc5)CC4)cc(C(F)(F)F)c3)c2)c1 [Compound B2I043-01, 4-[4-[3-[4-(3-Ethoxyphenyl)pyrazol-1-yl]-5-(trifluoromethyl)benzoyl]piperazin-1-yl]-N-methylsulfonylbenzamide] | 0.0% | 0.0%
14 | CCOc1cncc(-c2cnn(-c3cc(C(=O)N4CCN(c5ccc(C(=O)NS(C)(=O)=O)cc5)CC4)cc(C(F)(F)F)c3)c2)c1 [Compound B2I044-01, 4-[4-[3-[4-(5-Ethoxypyridin-3-yl)pyrazol-1-yl]-5-(trifluoromethyl)benzoyl]piperazin-1-yl]-N-methylsulfonylbenzamide] | 0.0% | 0.0%
15 | CCOc1cncc(-c2ccc(CN3CCN(c4ccc(C(=O)NS(C)(=O)=O)cc4)CC3)c(CC)c2)c1 [Compound B2I050-01, 4-[4-[[4-(5-Ethoxypyridin-3-yl)-2-ethylphenyl]methyl]piperazin-1-yl]-N-methylsulfonylbenzamide] | 0.0% | −1.5%
16 | CCOc1cncc(-c2ccc(CN3CCN(c4ccc(C(=O)NS(C)(=O)=O)cc4)CC3)c(OC)c2)c1 [Compound B2I054-01, 4-[4-[[4-(5-Ethoxypyridin-3-yl)-2-methoxyphenyl]methyl]piperazin-1-yl]-N-methylsulfonylbenzamide] | 0.0% | 0.0%
17 | CCOc1cncc(-c2cc(CN3CCN(c4ccc(C(=O)NS(C)(=O)=O)cc4)CC3)cc(OCC)c2)c1 [Compound B2I056-01, 4-[4-[[3-Ethoxy-5-(5-ethoxypyridin-3-yl)phenyl]methyl]piperazin-1-yl]-N-methylsulfonylbenzamide] | 0.0% | 0.0%
18 | CCOc1cncc(-c2cc(CN3CCN(c4ccc(C(=O)NS(C)(=O)=O)cc4)CC3)cc(OC(C)C)c2)c1 [Compound B2I058-01, 4-[4-[[3-(5-Ethoxypyridin-3-yl)-5-propan-2-yloxyphenyl]methyl]piperazin-1-yl]-N-methylsulfonylbenzamide] | 0.0% | 0.0%
19 | CCOc1cccc(-c2cc(OC)c(CN3CCN(c4ccc(C(=O)NS(C)(=O)=O)cc4)CC3)c(OC)c2)c1 [Compound B2I059-01, 4-[4-[[4-(3-Ethoxyphenyl)-2,6-dimethoxyphenyl]methyl]piperazin-1-yl]-N-methylsulfonylbenzamide] | 0.0% | 0.0%
20 | CCOc1cncc(-c2cc(OC)c(CN3CCN(c4ccc(C(=O)NS(C)(=O)=O)cc4)CC3)c(OC)c2)c1 [Compound B2I060-01, 4-[4-[[4-(5-Ethoxypyridin-3-yl)-2,6-dimethoxyphenyl]methyl]piperazin-1-yl]-N-methylsulfonylbenzamide] | 0.0% | 0.0%
